# Where a name gives a salt, the structure may show the parent alone. Read-outs that look alike come from different tables or passages of the source.
# How the values were obtained:
# [1] = target: T1, SARS-CoV-2 PLpro (nsp3 1564–1878) (Severe acute respiratory syndrome coronavirus 2, UniProt P0DTD1); experiment: biochemical; parameters: FRET-quenched peptide (Pro3) cleavage by PLpro, 10 min pre-incubation, slope over 20 min, normalised to no-compound control; settings: low concentration screen, read-out: % of control remaining
# [2] = target: T1, SARS-CoV-2 PLpro (nsp3 1564–1878); experiment: biochemical; parameters: FRET-quenched peptide (Pro3) cleavage by PLpro, 10 min pre-incubation, slope over 20 min, normalised to no-compound control; settings: high concentration screen, read-out: % of control remaining
compound,measurement,setting,value
O=C(O)CCC(=O)Nc1ccc(S(=O)(=O)Nc2nccs2)cc1 [Succinylsulfathiazole],remaining activity at 1.25 µM,[1]; Well no.=8034,89.3%
same,remaining activity at 3.75 µM,[2]; Well no.=8034,89.7%
Oc1ccc2ccccc2c1N=Nc1ccc(N=Nc2ccccc2)cc1 [Sudan III],remaining activity at 1.25 µM,[1]; Well no.=8024,93.7%
same,remaining activity at 3.75 µM,[2]; Well no.=8024,93.4%
Nc1ccc(S(=O)(=O)NC(=O)c2ccccc2)cc1 [Sulfabenzamide],remaining activity at 1.25 µM,[1]; Well no.=7306,103%
same,remaining activity at 3.75 µM,[2]; Well no.=7306,102%
NC(=O)NS(=O)(=O)c1ccc(N)cc1 [Sulfacarbamide],remaining activity at 1.25 µM,[1]; Well no.=7502,96.2%
same,remaining activity at 3.75 µM,[2]; Well no.=7502,98.8%
CC(=O)NS(=O)(=O)c1ccc(N)cc1 [Sulfacetamide (Sodium)],remaining activity at 1.25 µM,[1]; Well no.=7510,103%
same,remaining activity at 3.75 µM,[2]; Well no.=7510,102%
CC(=O)NS(=O)(=O)c1ccc(N)cc1 [Sulfacetamide Sodium],remaining activity at 1.25 µM,[1]; Well no.=4740,106%
same,remaining activity at 3.75 µM,[2]; Well no.=4740,106%
Nc1ccc(S(=O)(=O)Nc2ccc(Cl)nn2)cc1 [Sulfachloropyridazine],remaining activity at 1.25 µM,[1]; Well no.=8360,93.9%
same,remaining activity at 3.75 µM,[2]; Well no.=8360,92.1%
Nc1ccc(S(=O)(=O)Nc2cncc(Cl)n2)cc1 [Sulfaclozine (sodium)],remaining activity at 1.25 µM,[1]; Well no.=7458,96.2%
same,remaining activity at 3.75 µM,[2]; Well no.=7458,93.3%
Nc1ccc(S(=O)(=O)Nc2ncccn2)cc1 [Sulfadiazine],remaining activity at 1.25 µM,[1]; Well no.=2289,99.4%
same,remaining activity at 1.25 µM,[1]; Well no.=7494,97.4%
same,remaining activity at 3.75 µM,[2]; Well no.=2289,102%
same,remaining activity at 3.75 µM,[2]; Well no.=7494,98.3%
COc1cc(NS(=O)(=O)c2ccc(N)cc2)nc(OC)n1 [Sulfadimethoxine],remaining activity at 1.25 µM,[1]; Well no.=2291,93.2%
same,remaining activity at 1.25 µM,[1]; Well no.=8358,95.1%
same,remaining activity at 3.75 µM,[2]; Well no.=2291,91.8%
same,remaining activity at 3.75 µM,[2]; Well no.=8358,95.5%
COc1ncnc(NS(=O)(=O)c2ccc(N)cc2)c1OC [Sulfadoxine],remaining activity at 1.25 µM,[1]; Well no.=2287,97%
same,remaining activity at 1.25 µM,[1]; Well no.=7358,95.6%
same,remaining activity at 3.75 µM,[2]; Well no.=2287,92.6%
same,remaining activity at 3.75 µM,[2]; Well no.=7358,98%
N=C(N)NS(=O)(=O)c1ccc(N)cc1 [Sulfaguanidine],remaining activity at 1.25 µM,[1]; Well no.=7348,93.5%
same,remaining activity at 3.75 µM,[2]; Well no.=7348,93.1%
COc1nccnc1NS(=O)(=O)c1ccc(N)cc1 [Sulfalene],remaining activity at 1.25 µM,[1]; Well no.=8228,103%
same,remaining activity at 3.75 µM,[2]; Well no.=8228,85.7%
Cc1ccnc(NS(=O)(=O)c2ccc(N)cc2)n1 [Sulfamerazine],remaining activity at 1.25 µM,[1]; Well no.=4941,92.6%
same,remaining activity at 1.25 µM,[1]; Well no.=8644,94.8%
same,remaining activity at 3.75 µM,[2]; Well no.=4941,83.3%
same,remaining activity at 3.75 µM,[2]; Well no.=8644,92.4%
COc1cnc(NS(=O)(=O)c2ccc(N)cc2)nc1 [Sulfameter],remaining activity at 1.25 µM,[1]; Well no.=7406,98.3%
same,remaining activity at 1.25 µM,[1]; Well no.=8236,91.9%
same,remaining activity at 3.75 µM,[2]; Well no.=7406,100%
same,remaining activity at 3.75 µM,[2]; Well no.=8236,88.3%
Cc1cc(C)nc(NS(=O)(=O)c2ccc(N)cc2)n1 [Sulfamethazine],remaining activity at 1.25 µM,[1]; Well no.=4940,96.7%
same,remaining activity at 1.25 µM,[1]; Well no.=7456,99.7%
same,remaining activity at 3.75 µM,[2]; Well no.=4940,95.8%
same,remaining activity at 3.75 µM,[2]; Well no.=7456,99.2%
Cc1nnc(NS(=O)(=O)c2ccc(N)cc2)s1 [Sulfamethizole],remaining activity at 1.25 µM,[1]; Well no.=7444,94.6%
same,remaining activity at 1.25 µM,[1]; Well no.=8179,108%
same,remaining activity at 3.75 µM,[2]; Well no.=7444,92.4%
same,remaining activity at 3.75 µM,[2]; Well no.=8179,106%
Cc1cc(NS(=O)(=O)c2ccc(N)cc2)no1 [Sulfamethoxazole],remaining activity at 1.25 µM,[1]; Well no.=4662,102%
same,remaining activity at 3.75 µM,[2]; Well no.=4662,98.1%
same,remaining activity at 3.75 µM,[2]; Well no.=7398,107%
COc1ccc(NS(=O)(=O)c2ccc(N)cc2)nn1 [Sulfamethoxypyridazine],remaining activity at 1.25 µM,[1]; Well no.=7354,101%
same,remaining activity at 1.25 µM,[1]; Well no.=8613,94.6%
same,remaining activity at 3.75 µM,[2]; Well no.=7354,99.7%
same,remaining activity at 3.75 µM,[2]; Well no.=8613,94.7%
COc1cc(NS(=O)(=O)c2ccc(N)cc2)ncn1 [Sulfamonomethoxine],remaining activity at 1.25 µM,[1]; Well no.=7544,98.1%
same,remaining activity at 3.75 µM,[2]; Well no.=7544,98.5%
Nc1ccc(S(N)(=O)=O)cc1 [Sulfanilamide],remaining activity at 1.25 µM,[1]; Well no.=4620,106%
same,remaining activity at 1.25 µM,[1]; Well no.=7540,94.6%
same,remaining activity at 3.75 µM,[2]; Well no.=4620,108%
same,remaining activity at 3.75 µM,[2]; Well no.=7540,93.1%
Nc1ccc(S(=O)(=O)Nc2ccnn2-c2ccccc2)cc1 [Sulfaphenazole],remaining activity at 1.25 µM,[1]; Well no.=1404,104%
same,remaining activity at 1.25 µM,[1]; Well no.=8418,85.5%
same,remaining activity at 3.75 µM,[2]; Well no.=1404,99.3%
same,remaining activity at 3.75 µM,[2]; Well no.=8418,85.2%
Nc1ccc(S(=O)(=O)Nc2cnc3ccccc3n2)cc1 [Sulfaquinoxaline sodium salt],remaining activity at 1.25 µM,[1]; Well no.=8124,103%
same,remaining activity at 3.75 µM,[2]; Well no.=8124,100%
O=C(O)c1cc(/N=N/c2ccc(S(=O)(=O)Nc3ccccn3)cc2)ccc1O [Sulfasalazine],remaining activity at 1.25 µM,[1]; Well no.=2293,96.4%
same,remaining activity at 1.25 µM,[1]; Well no.=7312,101%
same,remaining activity at 3.75 µM,[2]; Well no.=2293,97.5%
same,remaining activity at 3.75 µM,[2]; Well no.=7312,101%
Nc1ccc(S(=O)(=O)Nc2nccs2)cc1 [Sulfathiazole (sodium)],remaining activity at 1.25 µM,[1]; Well no.=7404,104%
same,remaining activity at 3.75 µM,[2]; Well no.=7404,102%
Nc1ccc(S(=O)(=O)Nc2nccs2)cc1 [Sulfathiazole],remaining activity at 1.25 µM,[1]; Well no.=4937,98.9%
same,remaining activity at 3.75 µM,[2]; Well no.=4937,95.6%
Cc1noc(NS(=O)(=O)c2ccc(N)cc2)c1C [Sulfisoxazole],remaining activity at 1.25 µM,[1]; Well no.=4664,95.8%
same,remaining activity at 1.25 µM,[1]; Well no.=7548,104%
same,remaining activity at 1.25 µM,[1]; Well no.=8283,97.8%
same,remaining activity at 3.75 µM,[2]; Well no.=4664,97.2%
same,remaining activity at 3.75 µM,[2]; Well no.=7548,101%
same,remaining activity at 3.75 µM,[2]; Well no.=8283,97.6%
CSc1ccc(/C=C2/C(C)=C(CC(=O)O)c3cc(F)ccc32)cc1 [Sulindac sulfide],remaining activity at 1.25 µM,[1]; Well no.=6089,96.2%
same,remaining activity at 3.75 µM,[2]; Well no.=6089,93.8%
CC1=C(CC(=O)O)c2cc(F)ccc2/C1=C\c1ccc(S(C)(=O)=O)cc1 [Sulindac sulfone],remaining activity at 1.25 µM,[1]; Well no.=1500,95.3%
same,remaining activity at 3.75 µM,[2]; Well no.=1500,96.6%

# — publication PMC8286840, “Identifying SARS-CoV-2 antiviral compounds by screening for small molecule inhibitors of Nsp3 papain-like protease” (Biochemical Journal, 2021)
